From ChEMBL document CHEMBL1938228, “Design and synthesis of potent carboxylic acid DGAT1 inhibitors with high cell permeability” (Bioorg Med Chem Lett, 2012)

Legend:
Salmonella typhimurium = experiment: Induction of mutagenesis in Salmonella Typhimurium TA98 assessed as increase in mutation frequency in presence of liver S9 fraction relative to untreated control; type: toxicity, organism-based; conditions: salmonella enterica subsp. enterica serovar typhimurium
[1] = Lipophilicity, log D of the compound; type: physicochemical; conditions: octanol/water
[2] = Aqueous solubility of the compound; type: physicochemical

SMILES | fold change (FC) (Salmonella typhimurium) | logD [1] | solubility [2]
CC(C)(COc1ccc(-c2ccc(N)cc2)cc1)C(=O)O | 24 | – | –
CC(C)(COc1ccc(-c2ccc(N)cc2)cn1)C(=O)O | 2.6 | – | –
CC(Sc1nnc(-c2ccc(NC(=O)c3ccccc3)cc2)n1C)C(=O)O (racemic) | – | -0.53 | > 1000 µg/mL
